Experimental data: BindingDB's records for doi:10.1016/j.bmc.2007.02.010 (Princeton University, 2007)

Biological target: T1, E3 ubiquitin-protein ligase XIAP [241-356] (Homo sapiens, UniProt P98170)
T1 construct: 241-356
Assay: Competitive Fluorescent-binding Assay
Conditions: pH 7; 22 °C
Description: AVPC-badan can be displaced from the binding pocket of the protein by test compounds. As the dye is displaced from the binding pocket, the emission is reduced and resembles that of the AVPC-badan dye in solution alone. The AUC for the emission spectra of AVPC-badan alone, AVPC-badan, and for the Smac mimic bound to BIR3-XIAP are used to calculate a relative Kd for the Smac mimic. The relative Kd is then converted to an absolute Kd using the Kd value for AVPC-badan, which was determined in a titration assay.

T1 sequence (P98170 241-356): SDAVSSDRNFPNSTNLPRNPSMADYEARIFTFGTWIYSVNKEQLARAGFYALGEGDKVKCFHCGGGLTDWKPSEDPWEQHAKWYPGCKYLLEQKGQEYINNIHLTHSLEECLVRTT

Kd: 300 µM
SMILES: CC[C@@H](C)[C@H](NC(=O)[C@@H]1CCCN1C(=O)c1coc([C@H](C)N)n1)C(=O)O [(2S,3R)-2-{[(2S)-1-({2-[(1S)-1-aminoethyl]-1,3-oxazol-4-yl}carbonyl)pyrrolidin-2-yl]formamido}-3-methylpentanoic acid]
